Pest or weed control data for 11 compounds are collected here from US20180002288A1, “USE OF PICOLINAMIDES AS FUNGICIDES” (DOW AGROSCIENCES LLC, priority 2014, published 2018).

Where only a bound is given, the exact number is not on record here.

The test system of the assay is Venturia inaequalis. In words: Apple Scab fungicidal activity (VENTIN). Type of assay: in vivo. The note with it: 24 h, high volume, 1 Day Protectant, read-out: VENTIN % Control rating. The method, then:
All fungicides were evaluated using the aforementioned method for their activity vs. all target diseases, unless stated otherwise. Wheat leaf blotch and brown rust activity were also evaluated using track spray applications, in which case the fungicides were formulated as EC formulations, containing 0.1% Trycol 5941 in the spray solutions. Wheat plants (variety Yuma) were grown from seed in a greenhouse in 50% mineral soil/50% soil-less Metro mix until the first leaf was fully emerged, with 7-10 seedlings per pot. These plants were inoculated with an aqueous spore suspension of Zymoseptoria tritici either prior to or after fungicide treatments. After inoculation the plants were kept in 100% relative humidity (one day in a dark dew chamber followed by two to three days in a lighted dew chamber at 20° C.) to permit spores to germinate and infect the leaf. The plants were then transferred to a greenhouse set at 20° C. for disease to develop. When disease symptoms were fully expressed on the 1st leaves of untreated plants, infection levels were assessed on a scale of 0 to 100 percent disease severity. Percent disease control was calculated using the ratio of disease severity on treated plants relative to untreated plants. […] Seedlings with two expanding young leaves at the top (older leaves at bottom of the plants were trimmed) were used in the test. Plants were inoculated with a spore suspension of Venturia inaequalis 24 hr after fungicide treatment and kept in a 22° C. dew chamber with 100% relative humidity for 48 hr, and then moved to a greenhouse set at 20° C. for disease to develop. Fungicide formulation, application and disease assessment on the sprayed leaves followed the procedures as described in the Example A.

In the case of `COc1ccnc(C(=O)N[C@@H](C)C(=O)O[C@@H](C)[C@H](Oc2cc(F)cc(Cl)c2)c2ccccc2)c1OC(C)=O` [Example 207], the pest or weed control at 100 ppm was over 80%.

In the case of `COc1ccnc(C(=O)N[C@@H](C)C(=O)O[C@@H](C)[C@H](Oc2ccc(F)cc2)c2ccccc2)c1OC(C)=O` [Example 235], the pest or weed control at 100 ppm is under 80%.

Take `COc1ccnc(C(=O)N[C@@H](C)C(=O)O[C@@H](C)[C@H](Oc2ccccc2)c2ccc(F)cc2Cl)c1OCOC(C)=O` [Example 260]: the pest or weed control at 100 ppm was under 80%.

On to `COc1ccccc1[C@@H](Oc1ccccc1)[C@H](C)OC(=O)[C@H](C)NC(=O)c1nccc(OC)c1OCOC(C)=O` [Example 255], for which the pest or weed control at 100 ppm was under 80%.

Turning to `COc1ccnc(C(=O)N[C@@H](C)C(=O)O[C@@H](C)[C@H](Oc2ccccc2)c2ccc(C)cc2)c1OCOC(C)=O` [Example 252], the pest or weed control at 100 ppm was under 80%.

As to `COc1ccnc(C(=O)N[C@@H](C)C(=O)O[C@@H](C)[C@H](Oc2ccccc2)c2ccc(F)cc2C)c1OCOC(C)=O` [Example 259], the pest or weed control at 100 ppm was under 80%.

In the case of `COc1ccnc(C(=O)N[C@@H](C)C(=O)O[C@@H](C)C(Oc2ccc(F)cc2)c2ccccc2)c1OC(C)=O` (some centres unmarked) [Example 236], the pest or weed control at 100 ppm was over 80%.

Consider `COc1ccnc(C(=O)N[C@@H](C)C(=O)O[C@@H](C)[C@H](Oc2ccccc2)c2ccc3ccccc3c2)c1OCOC(C)=O` [Example 263], for which the pest or weed control at 100 ppm is under 80%.

As to `COc1ccnc(C(=O)N[C@@H](C)C(=O)O[C@@H](C)C(Oc2ccc(F)cc2)c2ccc(F)cc2)c1OCOC(C)=O` (some centres unmarked) [Example 238], the pest or weed control at 100 ppm is over 80%.

Regarding `COc1ccnc(C(=O)N[C@@H](C)C(=O)O[C@@H](C)[C@H](Oc2ccc(F)cc2)c2ccccc2)c1OCOC(C)=O` [Example 237], the pest or weed control at 100 ppm is under 80%.

As to `COc1ccnc(C(=O)N[C@@H](C)C(=O)O[C@@H](C)[C@H](Oc2ccccc2)c2ccccc2)c1OCOC(C)=O` [Example 183], the pest or weed control at 100 ppm is under 80%.
